Converted amounts (≈) assume the structure as drawn. The source made the active and inactive calls. The calls are words filed in the database; no cut-off is given here.
How the values were obtained:
Staphylococcus aureus [1] = assay: Antibacterial activity against methicillin-sensitive Staphylococcus aureus after 18 to 20 hrs by CLSI-protocol based broth microdilution method; format: functional
Staphylococcus aureus [2] = assay: Antibacterial activity against methicillin-resistant Staphylococcus aureus after 18 to 20 hrs by CLSI-protocol based broth microdilution method; format: functional
[3] = system: Staphylococcus epidermidis; assay: Antibacterial activity against methicillin-sensitive Staphylococcus epidermidis after 18 to 20 hrs by CLSI-protocol based broth microdilution method; format: functional
[4] = system: Staphylococcus epidermidis; assay: Antibacterial activity against methicillin-resistant Staphylococcus epidermidis after 18 to 20 hrs by CLSI-protocol based broth microdilution method; format: functional
Streptococcus pyogenes = assay: Antibacterial activity against Streptococcus pyogenes after 18 to 20 hrs by CLSI-protocol based broth microdilution method; format: functional
Neisseria gonorrhoeae = assay: Antibacterial activity against Neisseria gonorrhoeae after 18 to 20 hrs by CLSI-protocol based agar microdilution method; format: functional
[5] = Tmax in CD1 mouse at 10 mg/kg, po by LC-MS/MS analysis; format: ADME, organism-based; settings: in vivo
[6] = molecular target: Voltage-gated inwardly rectifying potassium channel KCNH2 (Homo sapiens, UniProt Q12809); assay: Inhibition of human ERG expressed in CHO cells in at -80 mV holding potential by automated Qpatch clamp assay; format: cell-based
Chain of Voltage-gated inwardly rectifying potassium channel KCNH2 (Q12809 whole entry): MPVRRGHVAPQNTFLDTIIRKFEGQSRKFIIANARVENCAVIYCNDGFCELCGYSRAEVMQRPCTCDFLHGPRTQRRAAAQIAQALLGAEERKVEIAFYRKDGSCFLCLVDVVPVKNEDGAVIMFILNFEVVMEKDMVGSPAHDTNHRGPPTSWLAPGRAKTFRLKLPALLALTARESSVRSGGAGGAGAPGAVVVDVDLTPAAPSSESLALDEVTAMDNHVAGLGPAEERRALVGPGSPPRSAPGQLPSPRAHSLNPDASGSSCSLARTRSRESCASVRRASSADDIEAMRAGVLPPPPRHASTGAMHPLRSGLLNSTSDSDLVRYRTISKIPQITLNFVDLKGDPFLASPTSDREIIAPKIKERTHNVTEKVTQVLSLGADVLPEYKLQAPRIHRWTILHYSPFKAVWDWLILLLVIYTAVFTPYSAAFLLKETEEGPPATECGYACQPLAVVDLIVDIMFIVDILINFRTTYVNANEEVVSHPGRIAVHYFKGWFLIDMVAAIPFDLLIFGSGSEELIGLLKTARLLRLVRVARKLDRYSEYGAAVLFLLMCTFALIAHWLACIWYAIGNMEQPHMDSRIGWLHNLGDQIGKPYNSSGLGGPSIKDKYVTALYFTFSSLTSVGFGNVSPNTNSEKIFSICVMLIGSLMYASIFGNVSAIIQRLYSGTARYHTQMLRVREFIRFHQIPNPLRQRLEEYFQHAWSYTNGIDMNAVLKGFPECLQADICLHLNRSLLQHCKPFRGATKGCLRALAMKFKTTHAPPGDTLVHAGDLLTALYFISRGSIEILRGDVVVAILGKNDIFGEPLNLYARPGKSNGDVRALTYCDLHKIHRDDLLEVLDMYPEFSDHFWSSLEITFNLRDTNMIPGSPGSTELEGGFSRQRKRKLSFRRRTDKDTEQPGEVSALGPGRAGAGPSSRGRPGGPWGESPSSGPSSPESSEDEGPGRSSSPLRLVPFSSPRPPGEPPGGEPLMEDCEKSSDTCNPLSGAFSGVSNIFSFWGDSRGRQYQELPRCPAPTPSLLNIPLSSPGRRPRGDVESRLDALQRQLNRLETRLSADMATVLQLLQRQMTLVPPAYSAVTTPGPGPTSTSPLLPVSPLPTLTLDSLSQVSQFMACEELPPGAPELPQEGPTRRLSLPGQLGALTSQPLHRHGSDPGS

[7] = molecular target: DNA topoisomerase 2-alpha (Homo sapiens, UniProt P11388); assay: Inhibition of human topoisomerase-2alpha using catenated DNA as substrate after 30 mins by ethidium bromide-based gel electrophoresis
Chain of DNA topoisomerase 2-alpha (P11388 whole entry): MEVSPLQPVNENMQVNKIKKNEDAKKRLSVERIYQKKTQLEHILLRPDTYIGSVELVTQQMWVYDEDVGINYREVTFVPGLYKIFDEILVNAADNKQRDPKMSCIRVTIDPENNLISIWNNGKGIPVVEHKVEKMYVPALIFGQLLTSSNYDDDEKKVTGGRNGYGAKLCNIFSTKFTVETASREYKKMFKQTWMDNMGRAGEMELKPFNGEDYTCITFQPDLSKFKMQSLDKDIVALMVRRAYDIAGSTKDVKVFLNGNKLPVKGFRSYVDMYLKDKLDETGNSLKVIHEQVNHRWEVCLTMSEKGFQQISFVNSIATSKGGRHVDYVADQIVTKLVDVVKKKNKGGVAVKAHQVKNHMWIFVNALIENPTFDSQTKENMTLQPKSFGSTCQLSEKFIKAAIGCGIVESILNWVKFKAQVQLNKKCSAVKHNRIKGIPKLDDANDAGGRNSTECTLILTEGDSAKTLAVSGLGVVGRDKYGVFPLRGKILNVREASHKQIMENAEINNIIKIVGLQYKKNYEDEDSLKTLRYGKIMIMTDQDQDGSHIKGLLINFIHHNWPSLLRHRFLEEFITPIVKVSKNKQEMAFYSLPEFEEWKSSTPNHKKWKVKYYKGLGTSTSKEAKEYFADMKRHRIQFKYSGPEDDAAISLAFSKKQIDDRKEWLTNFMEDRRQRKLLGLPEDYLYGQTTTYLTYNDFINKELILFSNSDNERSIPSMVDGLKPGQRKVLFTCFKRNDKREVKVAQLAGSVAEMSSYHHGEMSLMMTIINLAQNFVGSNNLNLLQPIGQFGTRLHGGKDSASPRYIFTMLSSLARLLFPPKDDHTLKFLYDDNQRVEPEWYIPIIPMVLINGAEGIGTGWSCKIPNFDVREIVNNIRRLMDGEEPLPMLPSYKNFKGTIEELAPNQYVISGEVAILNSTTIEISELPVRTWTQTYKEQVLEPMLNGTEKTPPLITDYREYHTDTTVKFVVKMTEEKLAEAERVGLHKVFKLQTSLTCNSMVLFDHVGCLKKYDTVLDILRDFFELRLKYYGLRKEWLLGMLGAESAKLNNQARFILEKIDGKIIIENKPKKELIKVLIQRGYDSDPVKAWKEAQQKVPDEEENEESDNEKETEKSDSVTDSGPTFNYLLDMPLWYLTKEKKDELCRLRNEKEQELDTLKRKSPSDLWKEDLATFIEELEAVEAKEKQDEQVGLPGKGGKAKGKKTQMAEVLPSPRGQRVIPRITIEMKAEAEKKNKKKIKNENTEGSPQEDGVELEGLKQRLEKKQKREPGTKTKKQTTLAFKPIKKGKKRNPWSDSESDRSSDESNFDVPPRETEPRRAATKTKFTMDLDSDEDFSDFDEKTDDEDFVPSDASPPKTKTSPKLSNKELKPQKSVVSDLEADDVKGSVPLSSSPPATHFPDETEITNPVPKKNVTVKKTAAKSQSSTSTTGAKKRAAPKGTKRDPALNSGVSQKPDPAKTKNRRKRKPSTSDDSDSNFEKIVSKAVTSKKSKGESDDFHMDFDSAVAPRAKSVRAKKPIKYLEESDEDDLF

DNA gyrase = DNA gyrase (Staphylococcus aureus, UniProt P0A0K8+P20831)
Chain of DNA gyrase (P0A0K8 whole entry): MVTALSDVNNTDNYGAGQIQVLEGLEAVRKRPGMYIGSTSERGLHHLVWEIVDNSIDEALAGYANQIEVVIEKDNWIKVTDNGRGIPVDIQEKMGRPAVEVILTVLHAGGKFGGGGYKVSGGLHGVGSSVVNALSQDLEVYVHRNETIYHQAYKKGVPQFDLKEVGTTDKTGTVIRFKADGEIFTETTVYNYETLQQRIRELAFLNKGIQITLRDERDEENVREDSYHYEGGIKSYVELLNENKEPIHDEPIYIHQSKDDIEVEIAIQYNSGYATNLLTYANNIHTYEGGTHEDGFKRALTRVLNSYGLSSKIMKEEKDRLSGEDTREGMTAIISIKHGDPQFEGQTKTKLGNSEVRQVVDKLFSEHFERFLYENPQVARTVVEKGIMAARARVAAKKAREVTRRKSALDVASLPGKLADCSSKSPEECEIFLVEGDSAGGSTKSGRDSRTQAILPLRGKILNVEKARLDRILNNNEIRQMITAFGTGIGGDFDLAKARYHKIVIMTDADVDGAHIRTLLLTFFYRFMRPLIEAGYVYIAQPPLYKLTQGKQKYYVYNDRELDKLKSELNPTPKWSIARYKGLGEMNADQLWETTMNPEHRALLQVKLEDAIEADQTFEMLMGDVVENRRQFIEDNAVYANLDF
Chain of DNA gyrase (P20831 whole entry): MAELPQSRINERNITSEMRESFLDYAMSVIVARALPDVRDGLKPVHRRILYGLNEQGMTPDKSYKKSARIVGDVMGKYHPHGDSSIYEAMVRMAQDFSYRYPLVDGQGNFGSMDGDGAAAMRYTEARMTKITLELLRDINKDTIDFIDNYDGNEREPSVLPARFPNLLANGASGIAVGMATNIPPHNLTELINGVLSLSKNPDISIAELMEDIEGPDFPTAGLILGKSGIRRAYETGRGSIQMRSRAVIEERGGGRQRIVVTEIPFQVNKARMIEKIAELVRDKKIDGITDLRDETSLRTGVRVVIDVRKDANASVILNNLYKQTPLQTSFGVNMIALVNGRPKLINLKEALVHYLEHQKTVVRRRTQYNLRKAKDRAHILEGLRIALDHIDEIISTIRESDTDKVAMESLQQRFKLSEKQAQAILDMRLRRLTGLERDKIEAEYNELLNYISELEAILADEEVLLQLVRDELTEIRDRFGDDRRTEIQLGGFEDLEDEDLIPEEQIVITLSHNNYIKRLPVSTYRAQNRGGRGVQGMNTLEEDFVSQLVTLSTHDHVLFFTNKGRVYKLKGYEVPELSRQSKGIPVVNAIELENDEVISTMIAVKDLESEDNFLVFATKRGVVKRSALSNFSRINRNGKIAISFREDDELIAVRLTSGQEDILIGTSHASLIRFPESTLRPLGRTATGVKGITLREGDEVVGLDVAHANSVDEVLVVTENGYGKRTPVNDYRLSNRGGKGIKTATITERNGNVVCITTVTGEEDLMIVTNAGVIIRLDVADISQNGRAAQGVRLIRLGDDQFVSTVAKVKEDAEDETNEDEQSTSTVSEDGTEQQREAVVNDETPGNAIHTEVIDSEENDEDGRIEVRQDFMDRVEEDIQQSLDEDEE
Description: Inhibition of Staphylococcus aureus DNA gyrase supercoiling activity using relaxed pHOT-1 DNA as substrate after 60 mins by ethidium bromide-based gel electrophoresis

Streptococcus pneumoniae = assay: Antibacterial activity against penicillin-resistant Streptococcus pneumoniae after 18 to 20 hrs by CLSI-protocol based broth microdilution method; format: functional
[8] = AUCt in CD1 mouse at 10 mg/kg, po by LC-MS/MS analysis; format: ADME, organism-based; settings: in vivo
[9] = MRT in CD1 mouse at 10 mg/kg, po by LC-MS/MS analysis; format: ADME, organism-based; settings: in vivo
[10] = Cmax in CD1 mouse at 10 mg/kg, po by LC-MS/MS analysis; format: ADME, organism-based; design: dose 10 mg/kg, route oral; settings: in vivo
[11] = Elimination half life in CD1 mouse at 10 mg/kg, po by LC-MS/MS analysis; format: ADME, organism-based; settings: in vivo, read-out: beta t1/2 (converted)
[12] = AUCt in Sprague-Dawley rat at 100 mg/kg, po by LC-MS/MS analysis; format: ADME, organism-based; settings: in vivo
[13] = Elimination half life in Sprague-Dawley rat at 100 mg/kg, po by LC-MS/MS analysis; format: ADME, organism-based; settings: in vivo, read-out: beta t1/2 (converted)
[14] = Oral bioavailability in Sprague-Dawley rat at 100 mg/kg by LC-MS/MS analysis; format: ADME, organism-based; settings: in vivo
[15] = Solubility of the compound in pH 6.8 intestinal juice incubated at 37 degC for 24 hrs by LC/MS/MS analysis; format: physicochemical
[16] = Solubility of the compound in pH 1.2 gastric juice incubated at 37 degC for 24 hrs by LC/MS/MS analysis; format: physicochemical
[17] = Solubility of the compound in water incubated at 37 degC for 24 hrs by LC/MS/MS analysis; format: physicochemical
Staphylococcus aureus [18] = assay: Antibacterial activity against methicillin-sensitive Staphylococcus aureus infected in Kunming mouse dosed subcutaneously at 0.5 and 4.0 hrs postinfection and measured at 7 to 14 days post treatment by Bliss method; format: functional; settings: sc
Staphylococcus aureus [19] = assay: Antibacterial activity against methicillin-resistant Staphylococcus aureus infected in Kunming mouse dosed subcutaneously at 0.5 and 4.0 hrs postinfection and measured at 7 to 14 days post treatment by Bliss method; format: functional; settings: sc
[20] = Staphylococcus aureus, read-out: MIC
[21] = Streptococcus pyogenes, read-out: MIC

Row | SMILES | MIC (Staphylococcus aureus [1]; [20]) | MIC (Staphylococcus aureus [2]) | MIC [3] | MIC [4] | MIC (Streptococcus pyogenes; [21]) | IC50 [7] | IC50 (DNA gyrase) | MIC (Streptococcus pneumoniae) | further results
1 | COC[C@H]1CN(c2noc3c(F)c4c(cc23)CC2(C(=O)NC(=O)NC2=O)[C@H]2[C@H](C)O[C@H](C)CN42)C(=O)S1 | 0.03 to 0.25 µg/mL (≈ 0.0562 to 0.469 µM) | 0.03 to 0.5 µg/mL (≈ 0.0562 to 0.937 µM) | 0.03 to 0.125 µg/mL (≈ 0.0562 to 0.234 µM) | < 0.03 µg/mL | 0.25 to 0.5 µg/mL (≈ 0.469 to 0.937 µM) | > 200 µM | 9.4 µM |  | MIC50 (Neisseria gonorrhoeae): 0.25 µg/mL (≈ 0.469 µM); MIC90 (Neisseria gonorrhoeae): 0.5 µg/mL (≈ 0.937 µM); Tmax [5]: 34.8 min; IC50 [6]: > 40 µM
2 | C[C@@H]1CN2c3c(cc4c(N5CC6(CCC6)OC5=O)noc4c3F)CC3(C(=O)NC(=O)NC3=O)[C@H]2[C@H](C)O1 | 0.125 to 0.25 µg/mL (≈ 0.243 to 0.487 µM) | 0.06 to 1 µg/mL (≈ 0.117 to 1.95 µM) | 0.06 to 0.25 µg/mL (≈ 0.117 to 0.487 µM) | 0.03 to 0.25 µg/mL (≈ 0.0584 to 0.487 µM) | 0.25 to 0.5 µg/mL (≈ 0.487 to 0.974 µM) | > 200 µM | 15.6 µM | 0.25 to 1 µg/mL (≈ 0.487 to 1.95 µM) | 
3 | C[C@@H]1CN2c3c(cc4c(N5C[C@H](C)SC5=O)noc4c3F)CC3(C(=O)NC(=O)NC3=O)[C@H]2[C@H](C)O1 |  |  | < 0.03 µg/mL | < 0.03 µg/mL | < 0.03 µg/mL | > 200 µM | 12.6 µM | < 0.03 µg/mL | MIC50 (Neisseria gonorrhoeae): 0.06 µg/mL (≈ 0.119 µM); MIC90 (Neisseria gonorrhoeae): 0.125 µg/mL (≈ 0.248 µM); AUC(0-t) [8]: 22500 ng·h/mL; MRT [9]: 11.4 h; Cmax [10]: 2080 ng/mL; Tmax [5]: 79.8 min; half-life [11]: 461 min; AUC(0-t) [12]: 452 µg·h/mL; half-life [13]: 518 min; bioavailability [14]: 52.7%; solubility at 24 h [15]: 11.3 µM (≈ 5.69 µg/mL); solubility at 24 h [16]: 9.4 µM (≈ 4.73 µg/mL); solubility at 24 h [17]: 10.2 µM (≈ 5.14 µg/mL); IC50 [6]: > 40 µM; ED50 (Staphylococcus aureus [18]): 9.59 mg/kg
4 | C[C@@H]1CN2c3c(cc4c(N5CCSC5=O)noc4c3F)CC3(C(=O)NC(=O)NC3=O)[C@H]2[C@H](C)O1 | ≤ 0.03 µg/mL | < 0.03 µg/mL | < 0.03 µg/mL | < 0.03 µg/mL | < 0.03 µg/mL |  |  | ≤ 0.03 µg/mL | MIC50 (Neisseria gonorrhoeae): 0.03 µg/mL (≈ 0.0613 µM); MIC90 (Neisseria gonorrhoeae): 0.06 µg/mL (≈ 0.123 µM); IC50 [6]: > 40 µM
5 | C[C@@H]1CN2c3c(cc4c(N5C(=O)SC[C@@H]5C)noc4c3F)CC3(C(=O)NC(=O)NC3=O)[C@H]2[C@H](C)O1 | 0.25 to 0.5 µg/mL (≈ 0.497 to 0.993 µM) | 0.03 to 0.125 µg/mL (≈ 0.0596 to 0.248 µM) | 0.03 to 0.125 µg/mL (≈ 0.0596 to 0.248 µM) | 0.06 to 0.25 µg/mL (≈ 0.119 to 0.497 µM) | 0.125 to 0.25 µg/mL (≈ 0.248 to 0.497 µM) | > 200 µM | 15.6 µM | 0.125 to 1 µg/mL (≈ 0.248 to 1.99 µM) | 
6 | CC[C@H]1CN(c2noc3c(F)c4c(cc23)CC2(C(=O)NC(=O)NC2=O)[C@H]2[C@H](C)O[C@H](C)CN42)C(=O)S1 | < 0.03 µg/mL | < 0.03 µg/mL |  | < 0.03 µg/mL | < 0.03 µg/mL | 128 µM | 9.1 µM |  | 
7 | Cc1ncnc2c(F)c3c(cc12)CC1(C(=O)NC(=O)NC1=O)[C@H]1[C@H](C)O[C@H](C)CN31 (racemic) |  | inactive | inactive | inactive |  |  |  | inactive | MIC (Staphylococcus aureus [1]): inactive; MIC (Streptococcus pyogenes): inactive
8 | C[C@@H]1CN2c3c(cc4c(N5C[C@@H](C)SC5=O)noc4c3F)CC3(C(=O)NC(=O)NC3=O)[C@H]2[C@H](C)O1 |  | 0.03 to 0.25 µg/mL (≈ 0.0596 to 0.497 µM) |  | 0.03 to 0.06 µg/mL (≈ 0.0596 to 0.119 µM) | < 0.03 µg/mL | > 200 µM | 15.3 µM | ≤ 0.03 µg/mL | MIC50 (Neisseria gonorrhoeae): 0.03 µg/mL (≈ 0.0596 µM); MIC90 (Neisseria gonorrhoeae): 0.125 µg/mL (≈ 0.248 µM); Tmax [5]: 34.8 min; IC50 [6]: > 40 µM
9 | C[C@@H]1CN2c3c(cc4c(N5C(=O)OC[C@@H]5C)noc4c3F)CC3(C(=O)NS(=O)(=O)NC3=O)[C@H]2[C@H](C)O1 |  | inactive | inactive | inactive |  |  |  | inactive | MIC (Staphylococcus aureus [1]): inactive; MIC (Streptococcus pyogenes): inactive
10 | C[C@@H]1CN2c3c(cc4c(N5C(=O)OCC5(C)C)noc4c3F)CC3(C(=O)NC(=O)NC3=O)[C@H]2[C@H](C)O1 (racemic) | 16 µg/mL (≈ 31.9 µM) | 16 µg/mL (≈ 31.9 µM) | 16 µg/mL (≈ 31.9 µM) | 16 µg/mL (≈ 31.9 µM) | 16 µg/mL (≈ 31.9 µM) |  |  | 16 µg/mL (≈ 31.9 µM) | 
11 | CC(=O)NC[C@H]1CN(c2ccc(N3CCOCC3)c(F)c2)C(=O)O1 [LINEZOLID] |  |  |  |  |  |  |  |  | ED50 (Staphylococcus aureus [18]): 4.53 mg/kg; ED50 (Staphylococcus aureus [19]): 4.83 mg/kg
12 | CC[C@H]1CSC(=O)N1c1noc2c(F)c3c(cc12)CC1(C(=O)NC(=O)NC1=O)[C@H]1[C@H](C)O[C@H](C)CN31 | 0.25 to 0.5 µg/mL (≈ 0.483 to 0.966 µM) | 0.5 to 1 µg/mL (≈ 0.966 to 1.93 µM) | 0.5 to 1 µg/mL (≈ 0.966 to 1.93 µM) | 0.25 to 0.5 µg/mL (≈ 0.483 to 0.966 µM) | 0.5 to 1 µg/mL (≈ 0.966 to 1.93 µM) |  |  | 0.5 to 1 µg/mL (≈ 0.966 to 1.93 µM) | 
13 | C[C@@H]1CN2c3c(cc4c(N5C(=O)OC[C@@H]5C)noc4c3C#N)CC3(C(=O)NC(=O)NC3=O)[C@H]2[C@H](C)O1 | 4 to 8 µg/mL (≈ 8.09 to 16.2 µM) | 1 to 32 µg/mL (≈ 2.02 to 64.7 µM) | 0.5 to 2 µg/mL (≈ 1.01 to 4.04 µM) | 1 to 2 µg/mL (≈ 2.02 to 4.04 µM) | 4 to 8 µg/mL (≈ 8.09 to 16.2 µM) |  |  | 2 to 8 µg/mL (≈ 4.04 to 16.2 µM) | 
14 | COc1cccc2c1C(=O)c1c(O)c3c(c(O)c1C2=O)C[C@@](O)(C(=O)CO)C[C@@H]3O[C@H]1C[C@H](N)[C@H](O)[C@H](C)O1 [DOXORUBICIN] |  |  |  |  |  | 0.6 µM |  |  | 
15 | C[C@@H]1CN2c3c(cc4c(N5CCSCC5)ncnc4c3F)CC3(C(=O)NC(=O)NC3=O)[C@H]2[C@H](C)O1 (racemic) |  | inactive | inactive | inactive |  |  |  | inactive | MIC (Staphylococcus aureus [1]): inactive; MIC (Streptococcus pyogenes): inactive
16 | C[C@@H]1CN(c2noc3c(C#N)c4c(cc23)CC2(C(=O)NC(=O)NC2=O)[C@H]2[C@H](C)O[C@H](C)CN42)C(=O)O1 | 2 to 8 µg/mL (≈ 4.04 to 16.2 µM) | 0.25 to 8 µg/mL (≈ 0.506 to 16.2 µM) | 1 to 2 µg/mL (≈ 2.02 to 4.04 µM) | 2 µg/mL (≈ 4.04 µM) | 4 to 8 µg/mL (≈ 8.09 to 16.2 µM) |  |  | 4 to 8 µg/mL (≈ 8.09 to 16.2 µM) | 
17 | C[C@@H]1CN2c3c(cc4c(N5CCOC5=S)noc4c3F)CC3(C(=O)NC(=O)NC3=O)[C@H]2[C@H](C)O1 (racemic) | 0.5 to 1 µg/mL (≈ 1.02 to 2.04 µM) | 1 to 2 µg/mL (≈ 2.04 to 4.09 µM) | 0.5 to 2 µg/mL (≈ 1.02 to 4.09 µM) | 1 µg/mL (≈ 2.04 µM) | 2 µg/mL (≈ 4.09 µM) |  |  | 1 to 2 µg/mL (≈ 2.04 to 4.09 µM) | 
18 | CC(=O)NC[C@H]1CN(c2noc3c(F)c4c(cc23)CC2(C(=O)NC(=O)NC2=O)[C@H]2[C@H](C)O[C@H](C)CN42)C(=O)S1 | 16 µg/mL (≈ 28.5 µM) | 16 to 64 µg/mL (≈ 28.5 to 114 µM) | 2 to 8 µg/mL (≈ 3.57 to 14.3 µM) | 0.5 to 2 µg/mL (≈ 0.892 to 3.57 µM) | 16 to 32 µg/mL (≈ 28.5 to 57.1 µM) |  |  | 2 µg/mL (≈ 3.57 µM) | 

From ChEMBL document CHEMBL4316588, “Design, Synthesis, and Biological Evaluation of Novel DNA Gyrase-Inhibiting Spiropyrimidinetriones as Potent Antibiotics for Treatment of Infections Caused by Multidrug-Resistant Gram-Positive Bacteria” (J Med Chem, 2019)
